Data from BindingDB's records for doi:10.1021/jm00046a026 (Virginia Commonwealth University, 1994).

Assays:
[1] = Inhibition against mu receptor from displacement studies using 0.5 nM [3H]-DAMGO in rhesus monkey cortex membrane
[2] = Inhibition against delta receptor from displacement studies using 1.5 nM [3H]DPDPE in rhesus monkey cortex membrane
[3] = Inhibition against kappa receptor from displacement studies using 1.5 nM [3H]U-69593 in rhesus monkey cortex membrane
[4] = Inhibition against sigma receptor using displacement of 3 nM [3H]pentazocine in homogenate of guinea pig brain cerebellum

CCCN1CC[C@]2(C)c3cc(O)ccc3CC1[C@@H]2C [(6S,11R)-6,11-Dimethyl-3-propyl-1,2,3,4,5,6-hexahydro-2,6-methano-benzo[d]azocin-8-ol]
Ki [1]: 1.5 nM | Ki [2]: 37 nM | Ki [3]: 2 nM | Ki [4]: 739 nM

CCN1CC[C@@]2(C)c3cc(O)ccc3CC1[C@H]2C [(6R,11S)-3-Ethyl-6,11-dimethyl-1,2,3,4,5,6-hexahydro-2,6-methano-benzo[d]azocin-8-ol]
Ki [2]: 7000 nM | Ki [3]: 3780 nM | Ki [4]: 1090 nM

CCCCCCN1CC[C@@]2(C)c3cc(O)ccc3CC1[C@H]2C [(6R,11S)-3-Hexyl-6,11-dimethyl-1,2,3,4,5,6-hexahydro-2,6-methano-benzo[d]azocin-8-ol]
Ki [1]: 318 nM | Ki [3]: 2260 nM | Ki [4]: 2.3 nM

CCCCN1CC[C@@]2(C)c3cc(O)ccc3CC1[C@H]2C [(6R,11S)-3-Butyl-6,11-dimethyl-1,2,3,4,5,6-hexahydro-2,6-methano-benzo[d]azocin-8-ol]
Ki [1]: 1240 nM | Ki [2]: 7000 nM | Ki [3]: 783 nM | Ki [4]: 6 nM

C[C@H]1C2Cc3ccc(O)cc3[C@@]1(C)CCN2C [(6S,11R)-3,6,11-Trimethyl-1,2,3,4,5,6-hexahydro-2,6-methano-benzo[d]azocin-8-ol]
Ki [1]: 4.2 nM | Ki [2]: 152 nM | Ki [3]: 17 nM | Ki [4]: 18100 nM

C[C@@H]1C2Cc3ccc(O)cc3[C@]1(C)CCN2 [(6R,11S)-6,11-Dimethyl-1,2,3,4,5,6-hexahydro-2,6-methano-benzo[d]azocin-8-ol]
Ki [1]: 1720 nM | Ki [2]: 7000 nM | Ki [3]: 3780 nM | Ki [4]: 2730 nM

CCCCCCCCN1CC[C@]2(C)c3cc(O)ccc3CC1[C@@H]2C [(6S,11R)-6,11-Dimethyl-3-octyl-1,2,3,4,5,6-hexahydro-2,6-methano-benzo[d]azocin-8-ol]
Ki [1]: 59 nM | Ki [2]: 114 nM | Ki [3]: 77 nM | Ki [4]: 35 nM

CCCCCN1CC[C@]2(C)c3cc(O)ccc3CC1[C@@H]2C [(6S,11R)-6,11-Dimethyl-3-pentyl-1,2,3,4,5,6-hexahydro-2,6-methano-benzo[d]azocin-8-ol]
Ki [1]: 15 nM | Ki [2]: 98 nM | Ki [3]: 23 nM

CCCCCCN1CC[C@]2(C)c3cc(O)ccc3CC1[C@@H]2C [(6S,11R)-3-Hexyl-6,11-dimethyl-1,2,3,4,5,6-hexahydro-2,6-methano-benzo[d]azocin-8-ol]
Ki [1]: 39 nM | Ki [2]: 67 nM | Ki [3]: 43 nM | Ki [4]: 40 nM

CCCCCCCCCN1CC[C@]2(C)c3cc(O)ccc3CC1[C@H]2C [(6S,11S)-6,11-Dimethyl-3-nonyl-1,2,3,4,5,6-hexahydro-2,6-methano-benzo[d]azocin-8-ol]
Ki [1]: 126 nM | Ki [2]: 2930 nM | Ki [3]: 2260 nM | Ki [4]: 12 nM

CCCCCCCCCCN1CC[C@]2(C)c3cc(O)ccc3CC1[C@@H]2C [(6S,11R)-3-Decyl-6,11-dimethyl-1,2,3,4,5,6-hexahydro-2,6-methano-benzo[d]azocin-8-ol]
Ki [1]: 997 nM | Ki [2]: 2580 nM | Ki [3]: 2260 nM | Ki [4]: 38 nM

CCCCCCCCN1CC[C@]2(C)c3cc(O)ccc3CC1[C@H]2C [(6S,11S)-6,11-Dimethyl-3-octyl-1,2,3,4,5,6-hexahydro-2,6-methano-benzo[d]azocin-8-ol]
Ki [1]: 160 nM | Ki [2]: 1590 nM | Ki [3]: 2260 nM | Ki [4]: 2.8 nM

CCCCCN1CC[C@@]2(C)c3cc(O)ccc3CC1[C@H]2C [(6R,11S)-6,11-Dimethyl-3-pentyl-1,2,3,4,5,6-hexahydro-2,6-methano-benzo[d]azocin-8-ol]
Ki [1]: 776 nM | Ki [2]: 7000 nM | Ki [3]: 738 nM

CCCCCCCN1CC[C@]2(C)c3cc(O)ccc3CC1[C@H]2C [(6S,11S)-3-Heptyl-6,11-dimethyl-1,2,3,4,5,6-hexahydro-2,6-methano-benzo[d]azocin-8-ol]
Ki [1]: 259 nM | Ki [2]: 7000 nM | Ki [3]: 723 nM | Ki [4]: 1.9 nM

CCCCCCCCCCN1CC[C@]2(C)c3cc(O)ccc3CC1[C@H]2C [(6S,11S)-3-Decyl-6,11-dimethyl-1,2,3,4,5,6-hexahydro-2,6-methano-benzo[d]azocin-8-ol]
Ki [1]: 756 nM | Ki [3]: 2260 nM | Ki [4]: 69 nM

CCCCN1CC[C@]2(C)c3cc(O)ccc3CC1[C@@H]2C [(6S,11R)-3-Butyl-6,11-dimethyl-1,2,3,4,5,6-hexahydro-2,6-methano-benzo[d]azocin-8-ol]
Ki [1]: 3.4 nM | Ki [2]: 78 nM | Ki [3]: 4.9 nM | Ki [4]: 104 nM

CCCCCCCN1CC[C@]2(C)c3cc(O)ccc3CC1[C@@H]2C [(6S,11R)-3-Heptyl-6,11-dimethyl-1,2,3,4,5,6-hexahydro-2,6-methano-benzo[d]azocin-8-ol]
Ki [1]: 27 nM | Ki [2]: 57 nM | Ki [3]: 32 nM | Ki [4]: 49 nM

CCCN1CC[C@@]2(C)c3cc(O)ccc3CC1[C@H]2C [(6R,11S)-6,11-Dimethyl-3-propyl-1,2,3,4,5,6-hexahydro-2,6-methano-benzo[d]azocin-8-ol]
Ki [1]: 943 nM | Ki [2]: 7000 nM | Ki [3]: 452 nM | Ki [4]: 43 nM

C[C@@H]1C2Cc3ccc(O)cc3[C@]1(C)CCN2C [(6R,11S)-3,6,11-Trimethyl-1,2,3,4,5,6-hexahydro-2,6-methano-benzo[d]azocin-8-ol]
Ki [1]: 1380 nM | Ki [2]: 7000 nM | Ki [3]: 3780 nM | Ki [4]: 1330 nM

CCCCCCCCCN1CC[C@]2(C)c3cc(O)ccc3CC1[C@@H]2C [(6S,11R)-6,11-Dimethyl-3-nonyl-1,2,3,4,5,6-hexahydro-2,6-methano-benzo[d]azocin-8-ol]
Ki [1]: 183 nM | Ki [2]: 464 nM | Ki [3]: 709 nM | Ki [4]: 32 nM

CCN1CC[C@]2(C)c3cc(O)ccc3CC1[C@@H]2C [(6S,11R)-3-Ethyl-6,11-dimethyl-1,2,3,4,5,6-hexahydro-2,6-methano-benzo[d]azocin-8-ol]
Ki [1]: 16 nM | Ki [2]: 158 nM | Ki [3]: 16 nM | Ki [4]: 16600 nM

C[C@H]1C2Cc3ccc(O)cc3[C@@]1(C)CCN2 [(6S,11R)-6,11-Dimethyl-1,2,3,4,5,6-hexahydro-2,6-methano-benzo[d]azocin-8-ol]
Ki [2]: 449 nM | Ki [3]: 113 nM | Ki [4]: 6750 nM
